Values after ≈ are worked out from the molar mass of the structure shown. Where a SMILES comes first, the peptide text is derived from it. Where no end group is shown, it is not given here.
Legend:
Z. mobilis [1] = type: cell-based, Zymomonas mobilis
Experimental: Z. mobilis strains, Zm6 (ATCC 29191), E. coli (ATCC 25404) and an S. aureus strain (DSM 20231) were subjected to screening for AMP resistance. Z. mobilis strains were routinely grown on the standard culture medium containing (per liter) 5 g of yeast extract, 1 g of KH2PO4, 1 g of (NH4) 2SO4, and 0.5 g of MgSO4·7H2O, supplemented with 40 mL of 50% glucose solution. E. coli was grown on LB medium, containing (per liter) 10 g of tryptone, 5 g of yeast extract, and 10 g of NaCl. S. aureus was grown on Mueller Hinton Broth, 21 g per 1 L, at 30 °C.
(§1) The quantification of antimicrobial resistance against various AMPs was conducted by monitoring the bacterial growth in the presence of peptides at serial dilutions. This assay was performed in 96-well plates using the Infinite® M200 PRO Multimode Microplate Reader from Tecan in Maennedorf, Switzerland, as described in our recent report. All bacterial strains were cultivated at 32 °C for 13–18 h at 200 rpm. Optical density measurements (λ = 550 nm) were automatically recorded at 10 min intervals. The antimicrobial resistance activity was quantified as the minimum inhibitory concentration (MIC), which represents the lowest peptide concentration capable of preventing the growth of bacterial cells.

E. coli [2] = details: cited from earlier work
From the text: Table 1 Minimal inhibitory concentrations (MICs) of AMPs against selected bacteria, μg/mL. | column: From / E. coli

E. Cancerogenus = details: cited from earlier work
From the text: Table 1 Minimal inhibitory concentrations (MICs) of AMPs against selected bacteria, μg/mL. | column: From / E. Cancerogenus

P. aeroginosa = details: cited from earlier work
From the text: Table 1 Minimal inhibitory concentrations (MICs) of AMPs against selected bacteria, μg/mL. | column: From / P. aeroginosa

K. pneumonia = details: cited from earlier work
From the text: Table 1 Minimal inhibitory concentrations (MICs) of AMPs against selected bacteria, μg/mL. | column: From / K. pneumonia

E. faecium = details: cited from earlier work
From the text: Table 1 Minimal inhibitory concentrations (MICs) of AMPs against selected bacteria, μg/mL. | column: From / E. faecium

S. aureus [3] = details: cited from earlier work
From the text: Table 1 Minimal inhibitory concentrations (MICs) of AMPs against selected bacteria, μg/mL. | column: From / S. aureus

P. acne = details: cited from earlier work
From the text: Table 1 Minimal inhibitory concentrations (MICs) of AMPs against selected bacteria, μg/mL. | column: From / P. acne

[4] = tested on: Z. mobilis cell suspension (proton-dependent ATP synthase of the cytoplasmic membrane); test: ATP synthesis induced by artificial transmembrane pH gradient; type: cell-based, Zymomonas mobilis; details: Z. mobilis starved cells; 10 μM, added 5 min before pH shift of 3.5–4.0 units; luciferin–luciferase
Experimental: (§2) Here, we assumed that any effect the AMPs exerted on the pH-induced ATP synthesis indicated a direct interaction between the peptide and the cytoplasmic membrane. After the induction of a pH gradient of 3.5–4.0 units in cell suspensions of both Z. mobilis and E. coli, we observed an abrupt increase in the intracellular ATP concentration, reaching its maximum value within a time span between 30 sec and 1 min. The magnitude of the observed ATP concentration rise approximately corresponded to previously published values. […] When added in amounts below the threshold value (Figure 4a,b), peptides had no inhibitory effect on the ATP response. […] Yet, such an effect elicits a much stronger physiological response in E. coli than in Z. mobilis.
(§3) ATP synthase activity induced by an artificial pH gradient was measured in non-growing starved cell suspensions. For the preparation of non-growing cell suspension, cells were harvested in the late exponential phase, sedimented, washed, and resuspended in 100 mM potassium phosphate buffer (pH 7.0), to a biomass concentration of 1.5–2.0 mg dry wt /mL. […] For ATP determination, 20 μL samples were quenched in ice-cold 10% TCA and assayed by the standard luciferin–luciferase method using a TECAN Infinite 200Pro microplate reader (Tecan, Männedorf, Switzerland). […]

[5] = tested on: E. coli cell suspension (proton-dependent ATP synthase of the cytoplasmic membrane); test: as above; type: cell-based, Escherichia coli; details: E. coli starved cells; 10 μM, added 5 min before pH shift of 3.5–4.0 units; luciferin–luciferase
Experimental: as §2, §3

E. coli [6] = test: Normalized inhibitory concentration (peptide molecules per cell); type: cell-based, Escherichia coli; details: added AMP normalized to inoculum size, calculated with E. coli cell size parameters
From the text: (§4) We noted, however, that there was a substantial difference between the specific cultivation conditions of Z. mobilis and the rest of the tested bacteria: Z. mobilis required a higher concentration of inoculum. A higher amount of biomass introduced at the start of cultivation might mitigate the antimicrobial effect of AMPs, since this decreases the number of peptide molecules available to penetrate the membrane of each individual cell. Indeed, it was shown that at least […] bound peptide molecules per bacterial cell are needed to kill it. […] For these experiments, we chose one Gram-positive and one Gram-negative model strain (S.aureus and E.coli, respectively) and two AMPs, RP556 and R10. […]
as §1, with “All bacterial strains were cultivated at 32 °C for 13–18 h at 200 rpm.” left out

S. aureus [7] = test: as above; type: cell-based; details: added AMP normalized to inoculum size, calculated with E. coli cell size parameters
From the text: as §4
as §1, with “All bacterial strains were cultivated at 32 °C for 13–18 h at 200 rpm.” left out

Z. mobilis [8] = test: as above; type: cell-based, Zymomonas mobilis; details: added AMP normalized to inoculum size, calculated with E. coli cell size parameters
From the text: as §4
as §1, with “All bacterial strains were cultivated at 32 °C for 13–18 h at 200 rpm.” left out

Row | Compound | MIC (Z. mobilis [1]) [µg/mL] | MIC (E. coli [2]) [µg/mL] | MIC (E. Cancerogenus) [µg/mL] | MIC (P. aeroginosa) [µg/mL] | MIC (K. pneumonia) [µg/mL] | MIC (E. faecium) [µg/mL] | MIC (S. aureus [3]) [µg/mL] | MIC (P. acne) [µg/mL] | effect on pH gradient-induced ATP synthesis [4] | effect on pH gradient-induced ATP synthesis [5] | Normalized inhibitory concentration (E. coli [6]) | Normalized inhibitory concentration (S. aureus [7]) | Normalized inhibitory concentration (Z. mobilis [8])
1 | CC(C)[C@H](NC(=O)[C@H](Cc1ccc(O)cc1)NC(=O)[C@H](Cc1c[nH]c2ccccc12)NC(=O)[C@H](CS)NC(=O)[C@H](Cc1ccccc1)NC(=O)CN)C(=O)N[C@@H](CS)C(=O)N[C@@H](C)C(=O)N[C@@H](CCCNC(=N)N)C(=O)N[C@@H](CCCNC(=N)N)C(=O)N[C@@H](CC(N)=O)C(=O)NCC(=O)N[C@@H](C)C(=O)N[C@@H](CCCNC(=N)N)C(=O)N[C@H](C(=O)N[C@@H](CS)C(=O)N[C@@H](Cc1ccc(O)cc1)C(=O)N[C@@H](CCCNC(=N)N)C(=O)N[C@@H](CCCNC(=N)N)C(=O)N[C@@H](CS)C(=O)N[C@@H](CC(N)=O)C(=O)O)C(C)C [AA139] (H-GFCWYVCARRNGARVCYRRCN-OH; N-terminus and C-terminus assumed) | 250.0 (≈ 97.9 µM) | 4.0 (≈ 1.57 µM) | 8.0 (≈ 3.13 µM) | 16.0 (≈ 6.26 µM) | 8.0 (≈ 3.13 µM) | 16.0 (≈ 6.26 µM) | 8.0 (≈ 3.13 µM) | 63.0 (≈ 24.7 µM) |  |  |  |  | 
2 | N#CC(C#N)=NNc1cccc(Cl)c1 [ClCCP] |  |  |  |  |  |  |  |  | almost complete de-energization and a dramatic drop of the ATP yield | almost complete de-energization and a dramatic drop of the ATP yield |  |  | 
3 | CC(C)C[C@H](NC(=O)[C@H](CS)NC(=O)[C@H](Cc1ccccc1)NC(=O)[C@@H](N)CCCCN)C(=O)N[C@@H](CCCCN)C(=O)N[C@@H](Cc1ccccc1)C(=O)N[C@@H](CS)C(=O)N[C@@H](Cc1ccccc1)C(=O)N[C@@H](CCCCN)C(=O)NCC(=O)N[C@@H](Cc1ccccc1)C(=O)N[C@@H](CS)C(=O)N[C@@H](Cc1ccccc1)C(=O)N[C@@H](CCCCN)C(=O)N[C@@H](C)C(=O)N[C@@H](CS)C(=O)NCC(=O)N[C@@H](CCCCN)C(=O)O [R11] (H-KFCLKFCFKGFCFKACGK-OH; N-terminus and C-terminus assumed) | 250.0 (≈ 119 µM) | 125.0 (≈ 59.4 µM) | 63.0 (≈ 29.9 µM) | 63.0 (≈ 29.9 µM) | 63.0 (≈ 29.9 µM) | 16.0 (≈ 7.6 µM) | 16.0 (≈ 7.6 µM) | 0.3 (≈ 0.142 µM) |  |  |  |  | 
4 | CC[C@H](C)[C@H](NC(=O)CNC(=O)[C@H](CCCCN)NC(=O)[C@H](Cc1ccc(O)cc1)NC(=O)[C@H](CS)NC(=O)[C@@H](NC(=O)[C@H](CCCCN)NC(=O)[C@H](Cc1ccccc1)NC(=O)[C@H](CS)NC(=O)[C@H](Cc1c[nH]c2ccccc12)NC(=O)[C@@H](N)CCCNC(=N)N)C(C)C)C(=O)N[C@@H](CS)C(=O)N[C@@H](Cc1ccc(O)cc1)C(=O)N[C@@H](CCCCN)C(=O)N[C@@H](CCCCN)C(=O)N[C@@H](CS)C(=O)N[C@@H](CCCCN)C(=O)O [RP556] (H-RWCFKVCYKGICYKKCK-OH; N-terminus and C-terminus assumed) |  | 4.0 (≈ 1.85 µM) | 4.0 (≈ 1.85 µM) | 2.0 (≈ 0.927 µM) | 4.0 (≈ 1.85 µM) | 2.0 (≈ 0.927 µM) | 1.0 (≈ 0.464 µM) | 2.0 (≈ 0.927 µM) |  |  | 2.93 × 10^7 peptide molecules per cell | 2.43 × 10^7 peptide molecules per cell | 1.68 × 10^10 peptide molecules per cell
5 | FAKALKALLKALKAL [Oligo10] | 31.0 | 16.0 | 63.0 | 63.0 | 63.0 | 16.0 | 4.0 | 2.0 |  |  |  |  | 
6 | IAKKFWKKFWKFWKIFKKIA [R12] | 63.0 | 8.0 | 31.0 | 4.0 | 31.0 | 16.0 | 8.0 | 0.5 |  |  |  |  | 
7 | IAKKFWPKFWKFWKIFKKIA [R13] | 63.0 | 4.0 | 31.0 | 4.0 | 8.0 | 16.0 | 4.0 | 0.3 |  |  |  |  | 
8 | KIAKRIWKRIWKILRRR [PA13] | 63.0 | 31.0 | 16.0 | 16.0 | 16.0 | 4.0 | 2.0 | 16.0 |  |  |  |  | 
9 | KKIAKKFWKKFWKFWKIFKK [R10] | 31.0 | 2.0 | 16.0 | 2.0 | 8.0 | 4.0 | 4.0 | 0.5 |  |  | 2.30 × 10^7 peptide molecules per cell | 1.98 × 10^8 peptide molecules per cell | 6.58 × 10^9 peptide molecules per cell
10 | KKIAKKFWKKFWKFWPKFWKIFKK [R14] | 63.0 | 16.0 | 16.0 | 4.0 | 4.0 | 8.0 | 8.0 | 1.0 |  |  |  |  | 
11 | VKRWKKWWRKWKKWV [LZ1] |  | 31.0 | 16.0 | 8.0 | 16.0 | 4.0 | 2.0 | 8.0 |  |  |  |  | 
